Assay results as given in paper PMC4977651, “Molecular features of biguanides required for targeting of mitochondrial respiratory complex I and activation of AMP-kinase” (BMC Biology, 2016).
Where “and” joins values, the source holds several entries; their conditions need not be identical. Equal entries are not always repeated. Where two headings read alike, the source gives them in different places.

Tests used:
[1] = target: bovine heart mitochondrial membranes (complex I) (Bos taurus, UniProt P03887+P03898+P17694+P42026); experiment: NADH:O2 oxidoreduction by bovine heart mitochondrial membranes (complexes I-III-IV); type: biochemical
bovine heart mitochondrial membranes (complex I), sequence (P42026 38-216): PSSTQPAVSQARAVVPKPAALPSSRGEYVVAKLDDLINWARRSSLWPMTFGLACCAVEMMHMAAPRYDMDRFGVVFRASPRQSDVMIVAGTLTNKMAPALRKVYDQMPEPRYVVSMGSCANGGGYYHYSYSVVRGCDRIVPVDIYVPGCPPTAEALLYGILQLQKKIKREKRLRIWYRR
bovine heart mitochondrial membranes (complex I), sequence (P17694 34-463): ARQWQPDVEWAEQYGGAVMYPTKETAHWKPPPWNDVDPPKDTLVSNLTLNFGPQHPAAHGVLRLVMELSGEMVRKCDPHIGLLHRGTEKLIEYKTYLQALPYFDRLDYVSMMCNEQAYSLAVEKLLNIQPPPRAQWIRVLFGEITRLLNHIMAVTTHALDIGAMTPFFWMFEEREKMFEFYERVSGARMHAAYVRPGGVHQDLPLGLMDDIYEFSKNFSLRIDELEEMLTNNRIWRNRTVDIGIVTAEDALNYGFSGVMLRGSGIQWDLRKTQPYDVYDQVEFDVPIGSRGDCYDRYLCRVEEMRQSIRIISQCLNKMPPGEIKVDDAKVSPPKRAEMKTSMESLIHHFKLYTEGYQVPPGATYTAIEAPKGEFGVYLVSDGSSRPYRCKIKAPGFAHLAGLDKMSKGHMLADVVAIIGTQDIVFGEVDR
bovine heart mitochondrial membranes (complex I), sequence (P03887 whole entry): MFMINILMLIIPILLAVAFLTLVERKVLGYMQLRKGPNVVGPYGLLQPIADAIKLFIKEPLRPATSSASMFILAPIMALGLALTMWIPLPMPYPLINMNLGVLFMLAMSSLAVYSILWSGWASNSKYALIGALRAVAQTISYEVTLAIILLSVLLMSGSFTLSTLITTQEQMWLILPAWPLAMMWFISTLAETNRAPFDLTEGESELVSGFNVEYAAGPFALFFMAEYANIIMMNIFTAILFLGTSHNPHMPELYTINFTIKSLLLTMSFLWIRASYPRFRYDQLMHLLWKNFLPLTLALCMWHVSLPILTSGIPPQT
bovine heart mitochondrial membranes (complex I), sequence (P03898 whole entry): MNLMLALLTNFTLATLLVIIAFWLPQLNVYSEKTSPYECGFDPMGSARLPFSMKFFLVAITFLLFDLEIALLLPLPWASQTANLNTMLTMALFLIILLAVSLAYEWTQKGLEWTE
Method: (§1) Complex I and mitochondrial membranes were prepared from Bos taurus (bovine) heart. Intact mitochondria were isolated from rat liver and mouse heart and liver. Membranes were prepared from mouse heart mitochondria by 5 s bursts of sonication at 4 °C and collected by centrifugation (75,000 × g, 1 h).
(§2) Assays were performed at 32 °C in a SpectraMax 96-well plate reader. NADH:decylubiquinone oxidoreduction by complex I at 0.5 μg mL^−1 was measured in 20 mM Tris-HCl (pH 7.2), 0.15 % soy bean asolectin (Avanti Polar Lipids), and 0.15 % 3-((3-cholamidopropyl)dimethylammonium)-1-propanesulfonate (CHAPS, Merck Chemicals Ltd), with 200 μM decylubiquinone and 200 μM NADH, and monitored using ε340–380(NADH) = 4.81 mM^−1 cm^−1 [23]. Catalysis was initiated by addition of NADH and maximal rates determined by linear regression. NADH:O2 oxidoreduction by membranes was measured similarly but using 5 μg mL^−1 membranes in 10 mM Tris-HCl (pH 7.4) and 250 mM sucrose using 200 μM NADH and supplemented with 0.15 mM horse heart cytochrome c (Sigma-Aldrich Ltd.). Succinate:O2 oxidoreduction was measured using 40 μg mL^−1 membranes in 5 mM succinate in 10 mM Tris-HCl (pH 7.4) as described previously. Control experiments included NaCl (to match the ionic strength) or DMSO, as appropriate.
Experimental values are reported as mean averages ± standard deviation (SD) of technical replicates for large sample sizes and mean averages ± standard error of the mean (SEM) of technical replicates for small sample sizes. Data were analyzed by the unpaired two-tailed Student’s t test. IC50 values were determined using the standard dose-effect relationship (activity (%) = 100 × IC50 / (IC50 + [inhibitor]^m) with the Hill Slope (m) set to unity for purified complex I) and are reported with 95 % confidence intervals.

[2] = system: bovine mitochondrial membranes (complexes II-III-IV); experiment: Succinate:O2 oxidoreduction (complexes II-III-IV, complex II assay) by bovine mitochondrial membranes; type: biochemical, Bos taurus; conditions: biguanide concentrations set to the IC50 values for NADH:O2 on bovine membranes; control = 100.00; n = 3
Method: as §2

143B cells = experiment: Rotenone-sensitive oxygen consumption rate in intact 143B cells; type: cell-based, human; conditions: for rotenone sensitive OCR after 6 hours of biguanide exposure, % control, average / rotenone sensitive OCR after 6 hours of biguanide exposure, average: biguanide at IC50/10; for rotenone sensitive OCR after 6 hours of biguanide exposure, average: OCR normalized to OCR immediately prior to biguanide addition; for inhibition of rotenone-sensitive respiration (in words): intact 143B cells, biguanide at IC50/10, monitored for 6 h
Method: (§3) 143B (CRL-8303 from ATCC), HepG2 (85011430 from The Health Protection Agency), and MDBK (CCL-22 from ATCC) cells were grown on Dulbecco’s modified Eagle’s medium (DMEM) supplemented with 10 % fetal bovine serum (FBS, Thermo Fisher Scientific) at 37 °C in 5 % CO2. All cells were confirmed as negative for mycoplasma.
(§4) Oxygen consumption rates (OCRs) were measured using a Seahorse XF96 extracellular flux analyzer at 37 °C. For intact cell measurements, 1.4 × 10^4 143B, HepG2, or MDBK cells were plated (per well) in DMEM containing 10 % FBS into Seahorse Bioscience Inc. XF96 plates and incubated for ~12 h at 37 °C in 5 % CO2. Then, the medium was exchanged for assay buffer containing DMEM, 4.5 g L^−1 glucose, 1 mM pyruvate, 32 mM NaCl, 2 mM GlutaMAX, 15 mg L^−1 phenol red, and 20 mM HEPES (pH 7.4 at 37 °C) and the cells placed in a CO2-free incubator at 37 °C for 30 min. Basal oxygen consumption rates were established before the addition of biguanides at one-tenth of their IC50 (IC50/10), and followed for ~ 6 h before the addition of rotenone (2 μM).
(§5) Rotenone-sensitive OCRs were calculated by subtracting the rotenone-insensitive rates (determined at the end of the experiment). OCRs were normalized by dividing by the OCR recorded immediately prior to the addition of biguanide. For rate of uptake calculations, the OCRs at time points after biguanide addition were divided by the OCRs at the same time points in control experiments. Data from wells with failed port injections were excluded from the analyses. The respiratory control ratio (RCR) values (state III versus state IV respiration) were ~11 and ~6 for permeabilized MDBK and 143B cells, respectively.

HepG2 cells = experiment: Rotenone-sensitive oxygen consumption rate in intact HepG2 cells; type: cell-based, human; conditions: for rotenone sensitive OCR after 6 hours of biguanide exposure, % control, average / rotenone sensitive OCR after 6 hours of biguanide exposure, average: HEPG2 cells, biguanide at IC50/10; for rotenone sensitive OCR after 6 hours of biguanide exposure, average: OCR normalized to OCR immediately prior to biguanide addition; for inhibition of rotenone-sensitive respiration (in words): intact HepG2 cells, biguanide at IC50/10, monitored for 6 h
Method: as §3, §4, §5

rat liver mitochondria = experiment: ADP-stimulated rotenone-sensitive OCR in isolated rat liver mitochondria; type: biochemical; design: rotenone sensitive OCR after ADP stimulation, individual replicates / rotenone sensitive OCR after ADP stimulation, average: unit not given here; conditions: for rotenone sensitive OCR after ADP stimulation, % of control, average / rotenone sensitive OCR after ADP stimulation, average: average of replicates; for rotenone sensitive OCR after ADP stimulation, % of control, individual replicates / rotenone sensitive OCR after ADP stimulation, individual replicates: replicate 1-5
Method: as §1
Isolated mitochondria were monitored using a Seahorse XF96 extracellular flux analyzer at 32 °C. Mouse heart mitochondria, and mouse and rat liver mitochondria were plated into XF96 plates at 4 and 16–20 μg per well, respectively, in 220 mM mannitol, 70 mM sucrose, 10 mM KH2PO4, 5 mM MgCl2, 1 mM EGTA, 0.2 % fatty acid-free BSA, and 2 mM HEPES (pH 7.4 at 37 °C) with 10 mM glutamate and 10 mM malate and adhered by centrifugation (2000 × g, 20 min, 4 °C). The medium was supplemented with a further 5 mM glutamate and 5 mM malate and the mitochondria incubated for 15 min. Then two baseline readings were taken before the biguanides were added at IC50/5. Biguanides were allowed to accumulate for 15–20 min before respiration was […] by the addition of 4 mM ADP. Rotenone (2 μM) was added at the end of the experiment. Data from wells with failed port injections were excluded from the analyses. The RCR values (state III versus state IV respiration) were 3.4, 4.8, and 4.6 for mouse heart, rat liver, and mouse liver, respectively.

[3] = log of concentration in mM; sample given as Bovine heart mitochondrial membranes; Prism variable slope fit, Bottom 0, Top 100
[4] = sample given as Bovine heart mitochondrial membranes; Prism log(inhibitor) vs. response variable slope fit (four parameters), Bottom 0, Top 100; read-out: IC50 (best fit value)
[5] = sample given as Bovine heart mitochondrial membranes; Prism variable slope fit, Bottom 0, Top 100
[6] = bovine heart mitochondrial membranes; inhibitor 0.025 mM; read-out: average % (rate, % of no-inhibitor control)
[7] = bovine heart mitochondrial membranes; inhibitor 0.05 mM; read-out: average % (rate, % of no-inhibitor control)
[8] = bovine heart mitochondrial membranes; inhibitor 0.25 mM; read-out: average % (rate, % of no-inhibitor control)
[9] = bovine heart mitochondrial membranes; inhibitor 0.50 mM; read-out: average % (rate, % of no-inhibitor control)

## CC(C)N=C(N)N=C(N)N [compound 4, 1-(diaminomethylidene)-2-(propan-2-yl)guanidine]
[1]; bovine heart mitochondrial membranes; inhibitor 0.62 mM; read-out: average % (rate, % of no-inhibitor control)
  remaining activity at 620 µM: 96.7%
[1]; bovine heart mitochondrial membranes; inhibitor 1.56 mM; read-out: average % (rate, % of no-inhibitor control)
  remaining activity at 1560 µM: 95.7%
[1]; bovine heart mitochondrial membranes; inhibitor 3.12 mM; read-out: average % (rate, % of no-inhibitor control)
  remaining activity at 3120 µM: 92.6%
[1]; bovine heart mitochondrial membranes; inhibitor 6.25 mM; read-out: average % (rate, % of no-inhibitor control)
  remaining activity at 6250 µM: 84.6%
[1]; bovine heart mitochondrial membranes; inhibitor 12.50 mM; read-out: average % (rate, % of no-inhibitor control)
  remaining activity at 12500 µM: 72.6%
[1]; bovine heart mitochondrial membranes; inhibitor 25.00 mM; read-out: average % (rate, % of no-inhibitor control)
  remaining activity at 25000 µM: 56.6%
[1]; bovine heart mitochondrial membranes; inhibitor 50.00 mM; read-out: average % (rate, % of no-inhibitor control)
  remaining activity at 50000 µM: 32.5%
[1]; [3]
  LogIC50 (best fit value): 1.46
[1]; [4]
  IC50: 28800 µM
[1]; [5]
  HillSlope (best fit value): -1.156
[2]
  Complex II assay (succinate:O2 oxidoreduction), average: 101.59
143B cells; 143B cells, 3 mM in the extracellular medium
  estimated rate of uptake into mitochondria: > 1.5 mM/min
143B cells; 143B cells
  rotenone sensitive OCR after 6 hours of biguanide exposure, % control, average: 0.91 % control
  rotenone sensitive OCR after 6 hours of biguanide exposure, average: 1.07
143B cells
  inhibition of rotenone-sensitive respiration (in words): inhibit respiration
HepG2 cells
  rotenone sensitive OCR after 6 hours of biguanide exposure, % control, average: 0.42 % control
  rotenone sensitive OCR after 6 hours of biguanide exposure, average: 0.43
  inhibition of rotenone-sensitive respiration (in words): inhibit respiration
HepG2 cells; HepG2 cells, 3 mM in the extracellular medium
  estimated rate of uptake into mitochondria: > 1.5 mM/min
Rat liver mitochondria
  rotenone sensitive OCR after ADP stimulation, % of control, average: 8.94 % of control
  rotenone sensitive OCR after ADP stimulation, average: 2.45
  rotenone sensitive OCR after ADP stimulation, % of control, individual replicates: 10.19 % of control and 7.26 % of control and 8.19 % of control and 10.12 % of control
  rotenone sensitive OCR after ADP stimulation, individual replicates: 2.79 and 1.99 and 2.25 and 2.77

## CC(C)N=C(N)N=C(N)NC(C)C [compound 5, N-(propan-2-yl)-1-3-(propan-2-yl)carbamimidamidomethanimidamide]
[1]; [6]
  remaining activity at 25 µM: 88.2%
[1]; [7]
  remaining activity at 50 µM: 80.7%
[1]; bovine heart mitochondrial membranes; inhibitor 0.12 mM; read-out: average % (rate, % of no-inhibitor control)
  remaining activity at 120 µM: 67.1%
[1]; [8]
  remaining activity at 250 µM: 53.5%
[1]; [9]
  remaining activity at 500 µM: 42.4%
[1]; bovine heart mitochondrial membranes; inhibitor 1.00 mM; read-out: average % (rate, % of no-inhibitor control)
  remaining activity at 1000 µM: 30.7%
[1]; bovine heart mitochondrial membranes; inhibitor 2.00 mM; read-out: average % (rate, % of no-inhibitor control)
  remaining activity at 2000 µM: 19.2%
[1]; [3]
  LogIC50 (best fit value): -0.4916
[1]; [4]
  IC50: 322 µM
[1]; [5]
  HillSlope (best fit value): -0.7631
[2]
  Complex II assay (succinate:O2 oxidoreduction), average: 100.71
143B cells; 143B cells
  rotenone sensitive OCR after 6 hours of biguanide exposure, % control, average: 102.76 % control
  rotenone sensitive OCR after 6 hours of biguanide exposure, average: 120.45
143B cells
  inhibition of rotenone-sensitive respiration (in words): do not
HepG2 cells
  rotenone sensitive OCR after 6 hours of biguanide exposure, % control, average: 88.37 % control
  rotenone sensitive OCR after 6 hours of biguanide exposure, average: 91.14
  inhibition of rotenone-sensitive respiration (in words): do not
Rat liver mitochondria
  rotenone sensitive OCR after ADP stimulation, % of control, average: 92.45 % of control
  rotenone sensitive OCR after ADP stimulation, average: 25.35
  rotenone sensitive OCR after ADP stimulation, % of control, individual replicates: 107.71 % of control and 88.69 % of control and 80.94 % of control
  rotenone sensitive OCR after ADP stimulation, individual replicates: 29.53 and 24.32 and 22.19

## [H]/N=C(\N/C(=N/[H])Nc1ccc(Cl)cc1)NC(C)C [proguanil, reference compound]
[1]; bovine heart mitochondrial membranes; inhibitor 0.005 mM; read-out: average % (rate, % of no-inhibitor control)
  remaining activity at 5 µM: 76.5%
[1]; bovine heart mitochondrial membranes; inhibitor 0.0125 mM; read-out: average % (rate, % of no-inhibitor control)
  remaining activity at 12.5 µM: 56.2%
[1]; [6]
  remaining activity at 25 µM: 41.4%
[1]; [7]
  remaining activity at 50 µM: 24.9%
[1]; bovine heart mitochondrial membranes; inhibitor 0.10 mM; read-out: average % (rate, % of no-inhibitor control)
  remaining activity at 100 µM: 7.77%
[1]; [8]
  remaining activity at 250 µM: 6.98%
[1]; [9]
  remaining activity at 500 µM: 7.97%
[1]; [3]
  LogIC50 (best fit value): -1.788
[1]; read-out: IC50 (best fit value); sample given as Bovine heart mitochondrial membranes; Prism log(inhibitor) vs. response variable slope fit (four parameters), Bottom 0, Top 100
  IC50: 16.3 µM
[1]; [5]
  HillSlope (best fit value): -1.025
[2]
  Complex II assay (succinate:O2 oxidoreduction), average: 95.35
143B cells; 143B cells
  rotenone sensitive OCR after 6 hours of biguanide exposure, % control, average: 94.32 % control
  rotenone sensitive OCR after 6 hours of biguanide exposure, average: 110.56
HepG2 cells
  rotenone sensitive OCR after 6 hours of biguanide exposure, % control, average: 93.06 % control
  rotenone sensitive OCR after 6 hours of biguanide exposure, average: 95.98
Rat liver mitochondria
  rotenone sensitive OCR after ADP stimulation, % of control, average: 91.40 % of control
  rotenone sensitive OCR after ADP stimulation, average: 25.06
  rotenone sensitive OCR after ADP stimulation, % of control, individual replicates: 82.64 % of control and 94.24 % of control and 97.33 % of control
  rotenone sensitive OCR after ADP stimulation, individual replicates: 22.66 and 25.84 and 26.69
